Common to all, as to assay: Radioligand binding assay, competition for [3H]RO7239181, γ1-containing GABAA subtypes
For assay [1], the target named is human GABAA α1β2γ1 receptor (Homo sapiens (Human), UniProt P14867+Q8N1C3). As for the experimental part: (§1) The affinity of compounds at GABAA γ1 subunit-containing receptors was measured by competition for [^3H]RO7239181 (67.3 Ci/mmol; Roche) binding to membranes from HEK293F cells (ThermoFisher R79007) expressing human (transiently transfected) receptors of composition α5β2γ1, α2β2γ1, α1β2γ1.
(§2) Harvested pellets from HEK293F cells expressing the different GABAA receptor subtypes were resuspended in Mannitol Buffer pH 7.2-7.4 (Mannitol 0.29 M, Triethylamine 10 mM, Acetic acid 10 mM, EDTA 1 mM plus protease inhibitors (20 tablets Complete, Roche Diagnostics Cat. No. 05 056 489 001 per liter)), washed two times and then resuspended at 1:10 to 1:15 dilution in the same buffer. Cell disruption was performed by stirring the suspension in a Parr vessel #4637 at 435 psi for 15 minutes, and then the suspensions were centrifuged at 1000×g for 15 minutes at 4° C. (Beckman Avanti J-HC: rotor JS-4.2). The supernatant (S1) was transferred in a 21 Schott flask and the pellet (P1) was resuspended with Mannitol Buffer up to 175 ml. The resuspended pellet was transferred into a 250 ml Corning centrifugal beaker and centrifuged at 1500×g for 10 minutes at 4° C. (Beckman Avanti J-HC: rotor JS-4.2). The supernatant (S1) was then transferred in the 21 Schott flask and the pellet was discarded. The supernatants (S1) were centrifuged in 500 ml Beckman polypropylene centrifugal beaker at 15′000×g for 30 minutes at 4° C. (Beckman Avanti J-20 XP; rotor JLA-10.500). The pellet (P2) was resuspended with Mannitol Buffer 1:1 and frozen at −80° C. The supernatant (S2) was centrifuged in 100 ml Beckman polypropylene centrifugal tubes at 48000×g for 50 minutes at 4° C. (Beckman Avanti J-20 XP; rotor JA-18). The supernatant (S3) was discarded and the pellet (P3) was resuspended with 1:1 Mannitol Buffer. The P2 and P3 protein concentration was determined with the BIORAD Standard assay method with bovine serum albumin as standard and measured on the NANO-Drop 1000. The membrane suspension was aliquots (500 μl per tube) and stored at −80° C. until required.
(§3) Membrane homogenates were resuspended and polytronised (Polytron PT1200E Kinematica AG) in Potassium Phosphate 10 mM, KCl 100 mM binding buffer at pH 7.4 to a final assay concentration determined with a previous experiment.
(§4) Assays were incubated to equilibrium for 1 hour at 4° C. and then, membranes were filtered onto unifilter (96-well white microplate with bonded GF/C filters preincubated 20-50 minutes in 0.3% Polyethylenimine) with a Filtermate 196 harvester (Packard BioScience) and washed 4 times with cold Potassium Phosphate 10 mM pH 7.4, KCl 100 mM binding buffer. After anhydrousing, filter-retained radioactivity was detected by liquid scintillation counting. Ki values were calculated using Excel-Fit (Microsoft) and are the means of two determinations.

Assay [2] has as its target human GABAA α2β2γ1 receptor (Homo sapiens (Human), UniProt P47869+Q8N1C3). To be noted: for LogSel: Log of the γ2/γ1 Ki ratio. As for the experimental part: as §1, §2, §3, §4
Assay [3] concerns the target human GABAA α5β2γ1 receptor (Homo sapiens (Human), UniProt P31644+Q8N1C3). To be noted: Table 1; [3H]RO7239181 displacement, membranes from HEK293F cells, mean of two determinations. The method, then:
The affinity of compounds at GABAA γ1 subunit-containing receptors was measured by competition for [^3H]RO7239181 (67.3 Ci/mmol; Roche) binding to membranes from HEK293F cells (ThermoFisher R79007) expressing human (transiently transfected) receptors of composition α5β2γ1, α2β2γ1, α1β2γ1. For better protein expression of the α2 subunit-containing receptors, the 28 amino acid long signal peptide (Met1 to Ala28) of the human GABAA α2 subunit was substituted by the 31 amino acid long signal peptide (Met1 to Ser31) of human GABAA α5 subunit.
as §2, §3
as §4, with “Radioligand binding assays were carried out in a volume of 200 μL (96-well plates) which contained 100 μL of cell membranes, [3H]RO7239181 at a concentration of 1.5 nM (α5β2γ1) or 20-30 nM (α1β2γ1, α2β2γ1) and the test compound in the range of [0.3-10000]=10^−9 M. Nonspecific binding was defined by 10×10^−6 (α5β2γ1) and 30×10^−6 M RO7239181 and typically represented less than 5% (α5β2γ1) and less than 20% (β1β2γ1, α2β2γ1) of the total binding. Assays” for “Assays”
Representative test results, obtained by the above described assay measuring binding affinity to HEK293 cells expressing human (h) receptors, are shown in the Table 1.

[4] abbreviates: Table 1, [3H]RO7239181 displacement, membranes from HEK293F cells, mean of two determinations.
[5] abbreviates: Ki h-GABAA α2β2γ1, Table 1, [3H]RO7239181 displacement, membranes from HEK293F cells, mean of two determinations.
The mark [6] stands for this setting: Ki h-GABAA α2β2γ1, Table 2, [3H]RO7239181 displacement.
[7] abbreviates: Table 1, Ki α1β3γ2 (nM)/Ki α2β2γ1 (nM).
The mark [8] stands for this setting: Table 3, reference compounds comparison.
Setting [9] is: Ki h-GABAA α2β2γ1, Table 3, reference compounds comparison.

Nine compounds from patent publication US20240270744A1 (Hoffmann-La Roche Inc., priority 2021, published 2024) can be followed below.

On to `C[C@@H]1N=C(c2c(F)cccc2F)c2c(cnc(C(F)(F)F)c2Cl)-n2nc(C(=O)NC[C@@H](C)O)nc21` [Example 16, (7S)-11-chloro-9-(2,6-difluorophenyl)-N-[(2R)-2-hydroxypropyl]-7-methyl-12-(trifluoromethyl)-2,3,5,8,13-pentazatricyclo[8.4.0.02,6]tetradeca-1(10),3,5,8,11,13-hexaene-4-carboxamide], for which the Ki in assay [1] (setting [4]) is 157 nM; in assay [2] (setting [5]), 39.8 nM; in assay [2] (setting [6]), 35.3 nM; in assay [3], 4.1 nM. The “γ2/γ1 Selectivity Ratio” value in assay [2] (setting [7]) turned out to be 238. In assay [2] (Table 1), the LogSel stood at 2.38.
As to `C[C@@H]1N=C(c2c(F)cccc2F)c2c(cnc(C(F)(F)F)c2Cl)-n2cc(C(=O)NCCO)nc21` [Example 19, (7S)-11-chloro-9-(2,6-difluorophenyl)-N-(2-hydroxyethyl)-7-methyl-12-(trifluoromethyl)-2,5,8,13-tetrazatricyclo[8.4.0.02,6]tetradeca-1(10),3,5,8,11,13-hexaene-4-carboxamide], the Ki is 48.9 nM in assay [1] (setting [4]), 21.2 nM in assay [2] (setting [5]), 23.2 nM in assay [2] (setting [6]) and 3.8 nM in assay [3]. Moreover, in assay [2] (setting [7]), the “γ2/γ1 Selectivity Ratio” value is listed as 241. The LogSel in assay [2] (Table 1) was 2.38.
As to `COC1CN(C(=O)c2nc3n(n2)-c2cnc(C(F)(F)F)c(Cl)c2C(c2c(F)cccc2F)=N[C@H]3C)C1` [Example 9, [(7S)-11-chloro-9-(2,6-difluorophenyl)-7-methyl-12-(trifluoromethyl)-2,3,5,8,13-pentazatricyclo[8.4.0.02,6]tetradeca-1(10),3,5,8,11,13-hexaen-4-yl]-(3-methoxyazetidin-1-yl)methanone], the Ki came out at 45.8 nM in assay [1] (setting [4]), 19.9 nM in assay [2] (setting [5]), 19.9 nM in assay [2] (setting [6]) and 7.1 nM in assay [3]. Moreover, the “γ2/γ1 Selectivity Ratio” value in assay [2] (setting [7]) amounted to 170. Moreover, in assay [2] (Table 1), the LogSel was determined as 2.23.
Consider `C[C@@H]1N=C(c2c(F)cccc2F)c2c(cnc(C(F)(F)F)c2Cl)-n2nc(C(=O)NCCO)nc21` [Example 15, (7S)-11-chloro-9-(2,6-difluorophenyl)-N-(2-hydroxyethyl)-7-methyl-12-(trifluoromethyl)-2,3,5,8,13-pentazatricyclo[8.4.0.02,6]tetradeca-1(10),3,5,8,11,13-hexaene-4-carboxamide], for which the Ki amounted to 114 nM in assay [1] (setting [4]), 34.5 nM in assay [2] (setting [5]), 36.5 nM in assay [2] (setting [6]) and 2.6 nM in assay [3]. Also, the “γ2/γ1 Selectivity Ratio” value in assay [2] (setting [7]) stood at 275. Besides, in assay [2] (Table 1), the LogSel is recorded as 2.44.
For the compound `Cc1nnc2n1-c1cnc(C(F)(F)F)c(Cl)c1C(c1c(F)cccc1F)=N[C@H]2C` [Example 4, (7S)-11-chloro-9-(2,6-difluorophenyl)-3,7-dimethyl-12-(trifluoromethyl)-2,4,5,8,13-pentazatricyclo[8.4.0.02,6]tetradeca-1(10),3,5,8,11,13-hexaene], the Ki in assay [1] (setting [4]) turned out to be 51.6 nM; in assay [1] (setting [8]), 51.6 nM; in assay [2] (setting [5]), 64.3 nM; in assay [2] (setting [6]), 64.3 nM; in assay [2] (setting [9]) it was 64.3 nM; in assay [3] it was 4.9 nM. For the same compound, the “γ2/γ1 Selectivity Ratio” value in assay [2] (setting [7]) was 113; in assay [2] (Table 3, Ki α1β3γ2/Ki α2β2γ1), 113. The LogSel in assay [2] (Table 1) was 2.05; in assay [2] (Table 3), 2.1.
In the case of `C[C@@H]1N=C(c2c(F)cccc2F)c2c(cnc(C(F)(F)F)c2Cl)-n2nc(C(=O)N3CCS(=O)(=O)CC3)nc21` [Example 11, [(7S)-11-chloro-9-(2,6-difluorophenyl)-7-methyl-12-(trifluoromethyl)-2,3,5,8,13-pentazatricyclo[8.4.0.02,6]tetradeca-1(10),3,5,8,11,13-hexaen-4-yl]-(1,1-dioxo-1,4-thiazinan-4-yl)methanone], the Ki stood at 45.8 nM in assay [1] (setting [4]), 9.6 nM in assay [2] (setting [5]), 9.6 nM in assay [2] (setting [6]) and 4.6 nM in assay [3]. Further, the “γ2/γ1 Selectivity Ratio” value in assay [2] (setting [7]) stood at 818. Moreover, the LogSel in assay [2] (Table 1) came to 2.91.
For the compound `Cc1nnc2n1-c1cnc(C(F)(F)F)c(Cl)c1C(c1c(F)cccc1Cl)=N[C@H]2C` [Example 17, (7S)-11-chloro-9-(2-chloro-6-fluoro-phenyl)-3,7-dimethyl-12-(trifluoromethyl)-2,4,5,8,13-pentazatricyclo[8.4.0.02,6]tetradeca-1(10),3,5,8,11,13-hexaene], the Ki in assay [1] (setting [4]) was 34.4 nM; in assay [2] (setting [5]) it was 22.6 nM; in assay [2] (setting [6]), 21 nM; in assay [3], 3.8 nM. Also, in assay [2] (setting [7]), the “γ2/γ1 Selectivity Ratio” value was determined as 215. For the same compound, the LogSel in assay [2] (Table 1) was determined as 2.33.
Regarding `C[C@@H]1N=C(c2c(F)cccc2F)c2c(cnc(C(F)(F)F)c2Cl)-n2nc(C(=O)N3CC(O)C3)nc21` [Example 8, [(7S)-11-chloro-9-(2,6-difluorophenyl)-7-methyl-12-(trifluoromethyl)-2,3,5,8,13-pentazatricyclo[8.4.0.02,6]tetradeca-1(10),3,5,8,11,13-hexaen-4-yl]-(3-hydroxyazetidin-1-yl)methanone], the Ki was found to be 48.8 nM in assay [1] (setting [4]), 14.6 nM in assay [2] (setting [5]), 14.6 nM in assay [2] (setting [6]) and 2.5 nM in assay [3]. Moreover, the “γ2/γ1 Selectivity Ratio” value in assay [2] (setting [7]) is 255. Further, the LogSel in assay [2] (Table 1) worked out at 2.41.
Regarding `C[C@@H]1N=C(c2c(F)cccc2F)c2c(cnc(C(F)(F)F)c2Cl)-n2nc(C(=O)N3CC(C)(O)C3)nc21` [Example 10, [(7S)-11-chloro-9-(2,6-difluorophenyl)-7-methyl-12-(trifluoromethyl)-2,3,5,8,13-pentazatricyclo[8.4.0.02,6]tetradeca-1(10),3,5,8,11,13-hexaen-4-yl]-(3-hydroxy-3-methyl-azetidin-1-yl)methanone], the Ki in assay [1] (setting [4]) amounted to 80.5 nM; in assay [1] (setting [8]), 80.5 nM; in assay [2] (setting [5]) it was 14.3 nM; in assay [2] (setting [6]), 14.3 nM; in assay [2] (setting [9]), 14.3 nM; in assay [3], 3 nM. Besides, the “γ2/γ1 Selectivity Ratio” value in assay [2] (setting [7]) was found to be 321; in assay [2] (Table 3, Ki α1β3γ2/Ki α2β2γ1), 321. For the same compound, the LogSel is on record as 2.51 in assay [2] (Table 1) and 2.5 in assay [2] (Table 3).
